Laboratory results published in patent publication US10611747B2, “Pyrone based compounds for treating bacterial infections” (FORGE THERAPEUTICS, INC., priority 2015, dated 2020).
Values after ≈ are worked out from the molar mass of the structure shown.

Legend:
Assay in all cases: Bacterial susceptibility testing (MIC, broth microdilution)
Format in all cases: cell-based
S. aureus ATCC 29213 = conditions: Staphylococcus aureus, ATCC29213; broth microdilution, 35° C., 18-24 h; read-out: MIC S. aureus ATCC 29213
Procedure: (§1) Minimal inhibitory concentrations (MIC) were determined by the broth microdilution method in accordance with the Clinical and Laboratory Standards Institute (CLSI) guidelines. In brief, organism suspensions were adjusted to a 0.5 McFarland standard to yield a final inoculum between 3×10^5 and 7×10^5 colony-forming units (CFU)/mL. Drug dilutions and inocula were made in sterile, cation adjusted Mueller-Hinton Broth (Beckton Dickinson). An inoculum volume of 100 μL was added to wells containing 100 μL of broth with 2-fold serial dilutions of drug. All inoculated microdilution trays were incubated in ambient air at 35° C. for 18-24 h. […] Performance of the assay was monitored by the use of laboratory quality-control strains and levofloxacin, a compound with a defined MIC spectrum, in accordance with CLSI guidelines.

P. aeruginosa 209 = conditions: Pseudomonas aeruginosa, 209; broth microdilution, 35° C., 18-24 h; read-out: MIC P. aeruginosa 209
Procedure: as §1

E. coli imp mutant = conditions: Escherichia coli, read-out: MIC E. coli imp mutant
Procedure: as §1

E. coli BW25113 = conditions: Escherichia coli, no FBS, 35° C., 18-24 h
Procedure: as §1

[1] = tested on: P. aeruginosa 210 delta mexAB-OprM; conditions: Pseudomonas aeruginosa, read-out: MIC P. aeruginosa 210 delta mexAB-OprM
Procedure: as §1

E. coli ATCC 25922 = conditions: Escherichia coli, ATCC25922; no FBS; broth microdilution, 35° C., 18-24 h; read-out: MIC E. coli ATCC 25922-no FBS
Procedure: as §1

E. coli delta tolC = conditions: Escherichia coli, 24 h, read-out: MIC E. coli delta tolC
Procedure: as §1

SMILES | MIC (S. aureus ATCC 29213) | MIC (P. aeruginosa 209) | MIC (E. coli imp mutant) | MIC (E. coli BW25113) | MIC [1] | MIC (E. coli ATCC 25922) | MIC (E. coli delta tolC)
O=C(c1ccc(C#CC#Cc2ccc(NCc3occc(=O)c3O)cc2)cc1)N1C[C@H]2C[C@@H]1CO2 [Compound 36] | > 32 µg/mL | > 32 µg/mL | 1 to 8 µg/mL (≈ 2.14 to 17.1 µM) | 1 to 8 µg/mL (≈ 2.14 to 17.1 µM) | > 32 µg/mL | 8 to 32 µg/mL (≈ 17.1 to 68.6 µM) | < 1 µg/mL
CN(C)[C@@H]1CCN(C(=O)c2ccc(C#CC#Cc3ccc(NCc4occc(=O)c4O)cc3)cc2)C1 [Compound 37] | > 32 µg/mL | > 32 µg/mL | 1 to 8 µg/mL (≈ 2.08 to 16.6 µM) | 1 to 8 µg/mL (≈ 2.08 to 16.6 µM) | > 32 µg/mL | 1 to 8 µg/mL (≈ 2.08 to 16.6 µM) | < 1 µg/mL
CN1CC2CN(C(=O)c3ccc(C#CC#Cc4ccc(NCc5occc(=O)c5O)cc4)cc3)CC2C1 (stereo not drawn) [Compound 41] | > 32 µg/mL | > 32 µg/mL | 1 to 8 µg/mL (≈ 2.03 to 16.2 µM) | 1 to 8 µg/mL (≈ 2.03 to 16.2 µM) | 8 to 32 µg/mL (≈ 16.2 to 64.8 µM) | 1 to 8 µg/mL (≈ 2.03 to 16.2 µM) | < 1 µg/mL
CN1CC2CN(C(=O)c3ccc(C#CC#Cc4ccc(NCc5occc(=O)c5O)cc4)cc3)C[C@@H]2C1 (stereo partly drawn) [Compound 42] | > 32 µg/mL | > 32 µg/mL | 1 to 8 µg/mL (≈ 2.03 to 16.2 µM) | 1 to 8 µg/mL (≈ 2.03 to 16.2 µM) | 8 to 32 µg/mL (≈ 16.2 to 64.8 µM) | 1 to 8 µg/mL (≈ 2.03 to 16.2 µM) | < 1 µg/mL
O=C(c1ccc(C#CC#Cc2ccc(NCc3occc(=O)c3O)cc2)cc1)N1CCN2CCCC2C1 (stereo not drawn) [Compound 43] | > 32 µg/mL | > 32 µg/mL | 1 to 8 µg/mL (≈ 2.03 to 16.2 µM) | 1 to 8 µg/mL (≈ 2.03 to 16.2 µM) | 8 to 32 µg/mL (≈ 16.2 to 64.8 µM) | 1 to 8 µg/mL (≈ 2.03 to 16.2 µM) | < 1 µg/mL
O=C(NCCO)c1ccc(C#CC#Cc2ccc(NCc3occc(=O)c3O)cc2)cc1 [Compound 44] | > 32 µg/mL | > 32 µg/mL | < 1 µg/mL | 1 to 8 µg/mL (≈ 2.33 to 18.7 µM) | 8 to 32 µg/mL (≈ 18.7 to 74.7 µM) | 1 to 8 µg/mL (≈ 2.33 to 18.7 µM) | < 1 µg/mL
O=C(c1ccc(C#CC#Cc2ccc(NCc3occc(=O)c3O)cc2)cc1)N1CCC(O)C1 (stereo not drawn) [Compound 45] | > 32 µg/mL | > 32 µg/mL | < 1 µg/mL | 1 to 8 µg/mL (≈ 2.2 to 17.6 µM) | 8 to 32 µg/mL (≈ 17.6 to 70.4 µM) | 1 to 8 µg/mL (≈ 2.2 to 17.6 µM) | < 1 µg/mL
O=C(NCCN1CCOCC1)c1ccc(C#CC#Cc2ccc(NCc3occc(=O)c3O)cc2)cc1 [Compound 46] | > 32 µg/mL | > 32 µg/mL | 1 to 8 µg/mL (≈ 2.01 to 16.1 µM) | 1 to 8 µg/mL (≈ 2.01 to 16.1 µM) | > 32 µg/mL | 8 to 32 µg/mL (≈ 16.1 to 64.3 µM) | < 1 µg/mL
O=C(c1ccc(C#CC#Cc2ccc(NCc3occc(=O)c3O)cc2)cc1)N1CCNCC1 [Compound 48] | > 32 µg/mL | > 32 µg/mL | 1 to 8 µg/mL (≈ 2.21 to 17.6 µM) | 1 to 8 µg/mL (≈ 2.21 to 17.6 µM) | 8 to 32 µg/mL (≈ 17.6 to 70.6 µM) | 1 to 8 µg/mL (≈ 2.21 to 17.6 µM) | < 1 µg/mL
N[C@@H]1CN(C(=O)c2ccc(C#CC#Cc3ccc(NCc4occc(=O)c4O)cc3)cc2)CC12CC2 [Compound 49] | > 32 µg/mL | > 32 µg/mL | 1 to 8 µg/mL (≈ 2.09 to 16.7 µM) | 1 to 8 µg/mL (≈ 2.09 to 16.7 µM) | > 32 µg/mL | 1 to 8 µg/mL (≈ 2.09 to 16.7 µM) | < 1 µg/mL
O=C(c1ccc(C#CC#Cc2ccc(NCc3occc(=O)c3O)cc2)cc1)N1CCC[C@H]1CO [Compound 50] |  |  |  | 1 to 8 µg/mL (≈ 2.13 to 17.1 µM) |  | 1 to 8 µg/mL (≈ 2.13 to 17.1 µM) | 
COC1CN(C(=O)c2ccc(C#CC#Cc3ccc(NCc4occc(=O)c4O)cc3)cc2)C1 [Compound 51] | > 32 µg/mL | > 32 µg/mL | 1 to 8 µg/mL (≈ 2.2 to 17.6 µM) | 1 to 8 µg/mL (≈ 2.2 to 17.6 µM) | > 32 µg/mL | 1 to 8 µg/mL (≈ 2.2 to 17.6 µM) | < 1 µg/mL
N#Cc1ccc(C#Cc2ccc(NCc3occc(=O)c3O)cc2)cc1 [Compound 52] | > 32 µg/mL | > 32 µg/mL | > 32 µg/mL | > 32 µg/mL | > 32 µg/mL | > 32 µg/mL | > 32 µg/mL
O=C(O)c1ccc(C#Cc2ccc(NCc3occc(=O)c3O)cc2)cc1 [Compound 53] | > 32 µg/mL | > 32 µg/mL | > 32 µg/mL | > 32 µg/mL | > 32 µg/mL | > 32 µg/mL | 1 to 8 µg/mL (≈ 2.77 to 22.1 µM)
